According to patent US10604535B2, “Compounds, compositions and methods” (Denali Therapeutics Inc., priority 2016, dated 2020):
Read-outs that look alike come from different tables or passages of the source.

Experiments:
[1] = test system: FADD-deficient Jurkat cells; experiment: Cellular necroptosis assay (human TNFα-induced necrosis, CellTiter-Glo); assay type: cell-based; details: Homo sapiens, Jurkat, 48 h, TNFα 10 ng/mL, read-out: Cell IC50
[2] = male, Sprague-Dawley Crl:CD(SD), in vivo, iv
Protocol: (§4) The protein binding in plasma was determined using a Rapid Equilibrium Dialysis Device (Thermo Scientific RED Device) or 96-well dialyzer apparatus (HTDialysis LLC). […] If required, plasma samples were pre-incubated (2 hours at 37° C.) with diisopropyl fluorophosphate (DFP) at the final concentration of 100 μM to prevent compound degradation due to amide hydrolysis. Appropriate volumes of spiked samples along with blank phosphate buffer were added to either device and incubated at 37° C. for a total of 5 hours with agitation at 500 rpm. Following incubation, an equal aliquot of dialysed matrix (plasma or buffer) is added to an equal volume of the opposite blank matrix such that the volume of buffer to plasma are equal. Mixed matrix samples were extracted by protein precipitation using acetonitrile containing the appropriate IS. Samples were then centrifuged for 10 min at 2800 rpm. Supernatants were collected and diluted and then injected on to an HPLC-MS/MS or UPLC-MS/MS system. Samples were analyzed by monitoring the appropriate parent/daughter ion transitions for the test and control compounds. The peak area ratios were used to measure test item concentrations. The fraction unbound (Afu) was determined as the ratio of the peak area ratio in buffer divided by the peak area ratio in plasma.
(§5) The PK properties of test articles were determined in male Sprague-Dawley Crl:CD(SD) rats, male Beagle dogs and male cynomolgus monkeys. Studies were conducted to the highest standards of animal welfare in accordance with national legislation and under approval of the internal animal care and use committees.
(§6) Compounds were administered by IV bolus to animals following an overnight fast. […] The formulations were administered at dose volumes ranging from 0.5-2 mL/kg. The IV dose ranged from 0.5-1 mg/kg.
(§7) Following dose administration, 8-9 serial blood samples were collected over 24 hours. Samples were mixed with anticoagulant and placed on wet ice prior to processing. Plasma was harvested following centrifugation, extracted using protein precipitation with acetonitrile containing IS. The processed supernatant was analyzed using UPLC or LC-MS/MS using specific parent/daughter ion pairs for the test article and IS. Plasma concentrations were determined using a calibration curve prepared using known concentrations of analyte. Pharmacokinetic parameters utilizing measured concentrations were calculated using Phoenix WinNonlin. The unbound plasma clearance was calculated as the ratio of the total body clearance divided by the fraction unbound in plasma.

[3] = male, Beagle, in vivo, iv
Protocol: as §4
The PK properties of test articles were determined in male Sprague-Dawley Crl:CD(SD) rats, male Beagle dogs and male cynomolgus monkeys. […]
Following dose administration, 8-9 serial blood samples were collected over 24 hours. […] The processed supernatant was analyzed using UPLC or LC-MS/MS using specific parent/daughter ion pairs for the test article and IS. Plasma concentrations were determined using a calibration curve prepared using known concentrations of analyte. Pharmacokinetic parameters utilizing measured concentrations were calculated using Phoenix WinNonlin. The unbound plasma clearance was calculated as the ratio of the total body clearance divided by the fraction unbound in plasma.

TNF/zVAD = details: 30 mg/kg, from Table 2 of WO 2014/125444; cited from earlier work
[4] = test system: human cryopreserved hepatocytes; experiment: Metabolic stability (hepatocytes); details: for clearance as % of liver blood flow: corresponding to human CLhep; for Human hepatocyte CLhep Avg: human cryopreserved hepatocytes
Protocol: (§8) The metabolic stability of compounds was evaluated in human cryopreserved hepatocytes (BioreclamationlVT, NY, USA) in duplicate. Test articles (or controls) were added to a 24-well incubation plate (Becton Dickinson Labware, USA) containing 0.5×10^6 hepatocytes/mL in suspension. The plate was held at 37° C. and agitated with constant orbital shaking (orbital speed at 350 rpm). At each time point (0, 5, 10, 15, 20, 30, 45, 60, 90, 120, 150 and 180 min) a Tecan Evo robot aspirated 50 μL of the incubation mixture and 100 μL of acetonitrile containing internal standard to quench the reaction. […] Samples were centrifuged (3000 rpm for 10 minutes) and the plate sealed prior to injection onto an LC-MS/MS system.
(§9) The appropriate parent/daughter ions were monitored for the test article and IS with the LC-MS/MS system. The intrinsic clearance (Clint; expressed μL/min/million cells) was determined from the first order elimination constant (k, min^−1) of test article decay and the volume of the incubation. […] The intrinsic organ CL was then converted to the hepatic clearance (CLhep) using the well-stirred model as shown below, where Qh is human hepatic blood flow.
(§10) Hepatic clearance is expressed as mL/min/kg. The hepatic clearance relates to the flow of blood through the liver that is completely cleared of the compound.

MDCKII-MDR1 cell line = experiment: MDCKII-MDR1 permeability, efflux ratio; assay type: in vitro ADME; details: MDCKII-MDR1, 3 μM, 90 min
Protocol: (§1) The blood brain barrier (BBB) separates circulating blood from the extracellular fluid of the central nervous system (CNS). The passive membrane permeability (Papp) and the P-gp (P-glycoprotein) substrate efflux potential were determined using the MDCKII-MDR1 cell line as an in vitro model of the effective permeability of a compound through the BBB. A bidirectional assay (Apical to Basolateral (A→B) and Basolateral to Apical (B→A)), in the absence and in the presence of GF120918 (a P-gp inhibitor) was conducted using pre-plated MDCKII-MDR1 cells (Corning HTS Transwell-96) obtained from SOLVO Biotechnology. The assay was run at 3 μM for 90 min (minutes) in triplicate using a HBSS+12.5 mM HEPES pH 7.4 transport buffer. Following incubation of samples from donor and receiver, wells were removed and measured by LC-MS/MS. Samples were extracted by protein precipitation with acetonitrile containing an appropriate internal standard (IS) having a known mass and molecular weight. The precipitate was centrifuged for 10 min at 3000 rpm (revolutions per minute). The supernatants were then collected, diluted if necessary, and injected on to the LC-MS/MS system. […] Papp (apparent permeability expressed in nm/sec [nanometer/second]) values were calculated according to the following equation: […]
(§2) Where dQ/dt is the permeability rate, C0 is the initial concentration in the donor solution (expressed as IS ratio), A and B are the surface areas of the filter (the surface area of the cell monolayer).
(§3) Monolayer efflux ratios (ER) were derived using the following equation: […]

GST-hRIPK1 (8-327) = GST-hRIPK1 (8-327) (Homo sapiens (Human), UniProt Q13546); experiment: Fluorescent Polarization Binding (FP Binding) assay
GST-hRIPK1 (8-327), sequence (Q13546 8-327): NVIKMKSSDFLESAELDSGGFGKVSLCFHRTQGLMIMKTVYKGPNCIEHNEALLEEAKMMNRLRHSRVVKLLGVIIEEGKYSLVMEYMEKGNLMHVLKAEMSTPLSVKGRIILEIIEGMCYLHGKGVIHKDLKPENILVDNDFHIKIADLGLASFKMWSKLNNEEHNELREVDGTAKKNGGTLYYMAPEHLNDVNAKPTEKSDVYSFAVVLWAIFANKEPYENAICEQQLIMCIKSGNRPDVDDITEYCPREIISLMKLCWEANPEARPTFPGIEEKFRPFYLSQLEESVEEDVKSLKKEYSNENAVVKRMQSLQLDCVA

[5] = test system: human cryopreserved hepatocytes
Protocol: as §8, §9, §10

[6] = male, cynomolgus monkey, in vivo, iv
Protocol: as §4, §5, §6, §7

P-gp (MDR1) = experiment: MDCKII-MDR1 permeability, efflux ratio; assay type: in vitro ADME; details: dog, MDCK-MDR1, pH 7.4, MDCKII-MDR1, 3 μM, read-out: ER MDR1
Protocol: as §1, §2, §3

CN1C(=O)[C@@H](NC(=O)c2nnc(Cc3ccccc3)[nH]2)COc2ccccc21 [A, reference compound]
IC50 [1]: 0.5 nM | Rat unbound CL [2]: 77 mL/min/kg | Dog unbound CL [3]: 240 mL/min/kg | inhibition of temperature loss (TNF/zVAD): 93% | clearance as % of liver blood flow [4]: approximately 32% | Human hepatocyte CLhep Avg [4]: 6.8 mL/min/kg

CN1C(=O)[C@@H](NC(=O)c2nnc(Cc3ccccc3)o2)COc2ccccc21 [B, reference compound]
IC50 [1]: 0.3 nM | ER MDR1 (MDCKII-MDR1 cell line): 1.0 | Human hepatocyte CLhep Avg [4]: 14 mL/min/kg

CN1C(=O)[C@@H](NC(=O)c2cc(C3(c4ccccc4)CC3)on2)COc2ccccc21 [Example 8, (S)—N-(5-methyl-4-oxo-2,3,4,5-tetrahydrobenzo[b][1,4]oxazepin-3-yl)-5-(1-phenylcyclopropyl)isoxazole-3-carboxamide]
IC50 (GST-hRIPK1 (8-327)): 0.1 to 1000 nM | Human hepatocyte CLhep Avg [5]: 19 mL/min/kg | Rat unbound CL [2]: 3700 mL/min/kg

CN1C(=O)[C@@H](NC(=O)c2cc(Cc3ccccc3)on2)CC2(CC2)c2ccccc21 [Example 9, (S)-5-benzyl-N-(1-methyl-2-oxo-1,2,3,4-tetrahydrospiro[benzo[b]azepine-5,1′-cyclopropan]-3-yl)isoxazole-3-carboxamide]
IC50 (GST-hRIPK1 (8-327)): 0.1 to 1000 nM | Human hepatocyte CLhep Avg [5]: 19 mL/min/kg

CN1C(=O)[C@@H](NC(=O)c2nnc(Cc3ccccc3)[nH]2)COc2cccnc21 [Example 42, (S)-5-benzyl-N-(5-methyl-4-oxo-2,3,4,5-tetrahydropyrido[3,2-b][1,4]oxazepin-3-yl)-4H-1,2,4-triazole-3-carboxamide]
Rat unbound CL [2]: 22 mL/min/kg | Dog unbound CL [3]: 64 mL/min/kg | Cyno unbound CL [6]: 42 mL/min/kg | clearance as % of liver blood flow [4]: less than 4% | Human hepatocyte CLhep Avg [4]: 0.8 mL/min/kg

CN1C(=O)[C@@H](NC(=O)c2nnc(Cc3ccccc3)[nH]2)[C@H]2C[C@H]2c2ccccc21 [Example 46A, 5-benzyl-N-((2S)-4-methyl-3-oxo-1,1a,2,3,4,8b-hexahydrobenzo[b]cyclopropa[d]azepin-2-yl)-4H-1,2,4-triazole-3-carboxamide]
IC50 (GST-hRIPK1 (8-327)): 0.1 to 1000 nM | efflux ratio at 90 min, 3 μM (P-gp (MDR1)): 16 | Human hepatocyte CLhep Avg [4]: 16 mL/min/kg

CN1C(=O)[C@@H](NC(=O)c2nnc(C3(c4ccccc4)CC3)o2)COc2cccnc21 [Example 66, (S)—N-(5-methyl-4-oxo-2,3,4,5-tetrahydropyrido[3,2-b][1,4]oxazepin-3-yl)-5-(1-phenylcyclopropyl)-1,3,4-oxadiazole-2-carboxamide]
Dog unbound CL [3]: 36 mL/min/kg | Human hepatocyte CLhep Avg [4]: 6.3 mL/min/kg

CN1C(=O)[C@@H](NC(=O)c2nnc(Cc3ccccc3)[nH]2)[C@H]2C[C@H]2c2cccnc21 [Example 75A, 5-benzyl-N-((1aS,2S,8bR)-4-methyl-3-oxo-1,1a,2,3,4,8b-hexahydrocyclopropa[d]pyrido[2,3-b]azepin-2-yl)-4H-1,2,4-triazole-3-carboxamide]
Rat unbound CL [2]: 91 mL/min/kg | Cyno unbound CL [6]: 93 mL/min/kg | Human hepatocyte CLhep Avg [4]: 9.1 mL/min/kg

O=C(N[C@@H]1C(=O)Nc2c(F)cc(F)cc2[C@@H]2C[C@H]12)c1nnc(Cc2ccccc2)[nH]1 [Example 83A, 5-benzyl-N-((1aS,2S,8bR)-5,7-difluoro-3-oxo-1,1a,2,3,4,8b-hexahydrobenzo[b]cyclopropa[d]azepin-2-yl)-4H-1,2,4-triazole-3-carboxamide]
Cyno unbound CL [6]: 82 mL/min/kg | Human hepatocyte CLhep Avg [4]: 1.0 mL/min/kg

C[C@H]1Oc2cccnc2N(C)C(=O)[C@H]1NC(=O)c1nnc(Cc2ccccc2)[nH]1 [Example 94, 5-benzyl-N-((2R,3S)-2,5-dimethyl-4-oxo-2,3,4,5-tetrahydropyrido[3,2-b][1,4]oxazepin-3-yl)-4H-1,2,4-triazole-3-carboxamide]
IC50 (GST-hRIPK1 (8-327)): 0.1 to 1000 nM | Rat unbound CL [2]: 44 mL/min/kg | Cyno unbound CL [6]: 40 mL/min/kg | Human hepatocyte CLhep Avg [4]: 4.9 mL/min/kg

CN1C(=O)[C@@H](NC(=O)c2nnc(Cc3ccccc3)[nH]2)[C@H]2C[C@H]2c2nccnc21 [Example 119B, 5-benzyl-N-((7S,7aS,8aR)-5-methyl-6-oxo-5,6,7,7a,8,8a-hexahydrocyclopropa[d]pyrazino[2,3-b]azepin-7-yl)-4H-1,2,4-triazole-3-carboxamide]
IC50 (GST-hRIPK1 (8-327)): 0.1 to 1000 nM | efflux ratio at 90 min, 3 μM (P-gp (MDR1)): 18 | Rat unbound CL [2]: 20 mL/min/kg | Cyno unbound CL [6]: 26 mL/min/kg | Human hepatocyte CLhep Avg [4]: 0 mL/min/kg

C[C@H]1Oc2cccnc2N(C)C(=O)[C@H]1NC(=O)c1nnc(Cc2ccccc2)o1 [Example 134, 5-Benzyl-N-((2R,3S)-2,5-dimethyl-4-oxo-2,3,4,5-tetrahydropyrido[3,2-b][1,4]oxazepin-3-yl)-1,3,4-oxadiazole-2-carboxamide]
IC50 (GST-hRIPK1 (8-327)): 0.1 to 1000 nM | Rat unbound CL [2]: 100 mL/min/kg | Cyno unbound CL [6]: 140 mL/min/kg | Human hepatocyte CLhep Avg [4]: 9.0 mL/min/kg

CN1C(=O)[C@@H](NC(=O)c2nnc(Cc3ccccc3)o2)COc2cccnc21 [Example 146, (S)-5-benzyl-N-(5-methyl-4-oxo-2,3,4,5-tetrahydropyrido[3,2-b][1,4]oxazepin-3-yl)-1,3,4-oxadiazole-2-carboxamide]
IC50 (GST-hRIPK1 (8-327)): 0.1 to 1000 nM | Rat unbound CL [2]: 61 mL/min/kg | Cyno unbound CL [6]: 39 mL/min/kg | Human hepatocyte CLhep Avg [4]: 4.2 mL/min/kg

CN1C(=O)[C@@H](NC(=O)c2ncn(Cc3cccc(C#N)c3)n2)COc2cccnc21 [Example 171, (S)-1-(3-cyanobenzyl)-N-(5-methyl-4-oxo-2,3,4,5-tetrahydropyrido[3,2-b][1,4]oxazepin-3-yl)-1H-1,2,4-triazole-3-carboxamide]
Human hepatocyte CLhep Avg [5]: 5.1 mL/min/kg | Rat unbound CL [2]: 32 mL/min/kg

C[C@H]1Oc2cccnc2N(C)C(=O)[C@H]1NC(=O)c1ncn(Cc2cccc(C#N)c2)n1 [Example 172, 1-(3-cyanobenzyl)-N-((2R,3S)-2,5-dimethyl-4-oxo-2,3,4,5-tetrahydropyrido[3,2-b][1,4]oxazepin-3-yl)-1H-1,2,4-triazole-3-carboxamide]
IC50 (GST-hRIPK1 (8-327)): 0.1 to 1000 nM | Rat unbound CL [2]: 65 mL/min/kg | Human hepatocyte CLhep Avg [4]: 5.3 mL/min/kg

CN1C(=O)[C@@H](NC(=O)c2nnc(Cc3ccccc3)o2)[C@H]2C[C@H]2c2nccnc21 [Example 177A, 5-benzyl-N-((7S,7aS,8aR)-5-methyl-6-oxo-5,6,7,7a,8,8a-hexahydrocyclopropa[d]pyrazino[2,3-b]azepin-7-yl)-1,3,4-oxadiazole-2-carboxamide]
IC50 (GST-hRIPK1 (8-327)): 0.1 to 1000 nM | efflux ratio at 90 min, 3 μM (P-gp (MDR1)): 1.4 | Rat unbound CL [2]: 55 mL/min/kg | Cyno unbound CL [6]: 58 mL/min/kg | Human hepatocyte CLhep Avg [4]: 4.2 mL/min/kg

[2H]C([2H])([2H])N1C(=O)[C@@H](NC(=O)c2nn(Cc3ccccc3)cc2F)[C@H]2C[C@H]2c2cc(S(C)(=O)=O)ccc21 [Example 183B, 1-benzyl-4-fluoro-N-((1aS,2S,8bR)-4-trideuteriomethyl-7-(methylsulfonyl)-3-oxo-1,1a,2,3,4,8b-hexahydrobenzo[b]cyclopropa[d]azepin-2-yl)-1H-pyrazole-3-carboxamide]
IC50 (GST-hRIPK1 (8-327)): 0.1 to 1000 nM | efflux ratio at 90 min, 3 μM (P-gp (MDR1)): 36 | Human hepatocyte CLhep Avg [4]: 5.3 mL/min/kg
